Assays:
[1] = biological target: Serine/threonine-protein kinase 25 (Homo sapiens) (UniProt O00506); test: Inhibition of human STK25/YSK1 using myelin basic protein as substrate at 1 uM in presence of 32P-ATP by Hotspot assay relative to control; values are per cent of control
[2] = biological target: CDK6/cyclin D1 (Homo sapiens) (UniProt P24385+Q00534); test: Inhibition of human CDK6/cyclin D1 using RB Protein as substrate at 1 uM in presence of 32P-ATP by Hotspot assay relative to control; values are per cent of control
[3] = biological target: T1, Ephrin type-B receptor 1 (Homo sapiens) (UniProt P54762); test: Inhibition of human EPHB1 using poly[Glu:Tyr] (4:1) as substrate at 1 uM in presence of 32P-ATP by Hotspot assay relative to control; values are per cent of control
T1 sequence (whole entry): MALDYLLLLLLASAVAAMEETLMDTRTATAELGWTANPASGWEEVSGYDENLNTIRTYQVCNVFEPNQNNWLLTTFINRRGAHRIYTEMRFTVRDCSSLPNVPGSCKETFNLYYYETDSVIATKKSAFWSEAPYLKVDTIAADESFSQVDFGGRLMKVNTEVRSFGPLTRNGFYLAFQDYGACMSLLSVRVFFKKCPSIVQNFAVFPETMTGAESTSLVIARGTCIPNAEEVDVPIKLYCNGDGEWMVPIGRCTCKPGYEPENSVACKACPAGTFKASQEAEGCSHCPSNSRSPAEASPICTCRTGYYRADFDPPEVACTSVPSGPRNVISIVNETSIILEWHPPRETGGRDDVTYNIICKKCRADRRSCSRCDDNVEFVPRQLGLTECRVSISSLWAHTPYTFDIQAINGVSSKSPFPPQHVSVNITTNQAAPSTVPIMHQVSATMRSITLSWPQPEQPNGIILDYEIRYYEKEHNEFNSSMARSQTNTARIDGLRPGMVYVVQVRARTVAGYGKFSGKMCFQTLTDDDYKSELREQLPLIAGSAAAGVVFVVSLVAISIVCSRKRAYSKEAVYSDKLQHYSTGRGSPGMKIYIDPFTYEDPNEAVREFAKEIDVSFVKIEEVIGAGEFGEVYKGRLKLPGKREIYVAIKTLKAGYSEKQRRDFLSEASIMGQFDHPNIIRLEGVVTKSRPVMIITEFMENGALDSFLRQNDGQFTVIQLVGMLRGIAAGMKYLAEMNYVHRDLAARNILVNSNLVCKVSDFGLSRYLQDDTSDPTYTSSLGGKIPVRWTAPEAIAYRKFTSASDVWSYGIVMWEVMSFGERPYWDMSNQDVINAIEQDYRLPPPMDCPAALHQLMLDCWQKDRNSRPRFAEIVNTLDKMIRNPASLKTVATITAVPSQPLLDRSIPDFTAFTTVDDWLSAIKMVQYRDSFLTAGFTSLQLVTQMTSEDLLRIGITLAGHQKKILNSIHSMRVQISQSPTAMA

[4] = biological target: T2, Megakaryocyte-associated tyrosine-protein kinase (Homo sapiens) (UniProt P42679); test: Inhibition of human CTK/MATK using poly[Glu:Tyr] (4:1) as substrate at 1 uM in presence of 32P-ATP by Hotspot assay relative to control; values are per cent of control
T2 sequence (whole entry): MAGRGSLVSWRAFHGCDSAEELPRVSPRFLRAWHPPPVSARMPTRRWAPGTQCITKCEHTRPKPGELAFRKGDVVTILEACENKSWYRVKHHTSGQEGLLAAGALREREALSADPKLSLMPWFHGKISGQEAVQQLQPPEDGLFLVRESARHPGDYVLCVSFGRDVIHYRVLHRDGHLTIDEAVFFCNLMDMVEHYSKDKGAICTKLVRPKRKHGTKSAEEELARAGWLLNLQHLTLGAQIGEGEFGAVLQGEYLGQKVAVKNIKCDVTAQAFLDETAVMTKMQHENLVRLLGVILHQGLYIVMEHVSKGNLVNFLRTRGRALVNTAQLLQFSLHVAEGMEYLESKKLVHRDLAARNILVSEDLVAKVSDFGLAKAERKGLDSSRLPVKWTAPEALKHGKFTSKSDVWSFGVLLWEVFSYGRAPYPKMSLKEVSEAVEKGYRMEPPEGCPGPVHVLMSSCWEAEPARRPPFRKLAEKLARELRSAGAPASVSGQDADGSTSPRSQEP

[5] = biological target: T3, Dual specificity tyrosine-phosphorylation-regulated kinase 4 (Homo sapiens) (UniProt Q9NR20); test: Inhibition of human DYRK4 using RRRFRPASPLRGPPK as substrate at 1 uM in presence of 32P-ATP by Hotspot assay relative to control; values are per cent of control
T3 sequence (whole entry): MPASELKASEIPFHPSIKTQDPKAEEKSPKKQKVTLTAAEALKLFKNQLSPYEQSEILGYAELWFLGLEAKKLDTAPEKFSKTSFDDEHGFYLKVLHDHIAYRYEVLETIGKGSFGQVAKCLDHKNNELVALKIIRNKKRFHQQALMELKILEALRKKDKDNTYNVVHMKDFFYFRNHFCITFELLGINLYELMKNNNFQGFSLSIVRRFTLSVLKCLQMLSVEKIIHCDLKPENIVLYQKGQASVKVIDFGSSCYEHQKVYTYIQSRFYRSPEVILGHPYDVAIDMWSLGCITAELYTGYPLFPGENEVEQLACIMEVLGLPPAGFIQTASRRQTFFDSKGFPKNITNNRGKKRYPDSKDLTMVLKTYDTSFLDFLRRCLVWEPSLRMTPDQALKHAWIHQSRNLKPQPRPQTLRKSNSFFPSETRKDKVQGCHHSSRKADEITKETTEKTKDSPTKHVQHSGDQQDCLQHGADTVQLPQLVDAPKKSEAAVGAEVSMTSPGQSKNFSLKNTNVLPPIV

Serine/threonine-protein kinase 25 (Homo sapiens), sequence (O00506 whole entry, looked up): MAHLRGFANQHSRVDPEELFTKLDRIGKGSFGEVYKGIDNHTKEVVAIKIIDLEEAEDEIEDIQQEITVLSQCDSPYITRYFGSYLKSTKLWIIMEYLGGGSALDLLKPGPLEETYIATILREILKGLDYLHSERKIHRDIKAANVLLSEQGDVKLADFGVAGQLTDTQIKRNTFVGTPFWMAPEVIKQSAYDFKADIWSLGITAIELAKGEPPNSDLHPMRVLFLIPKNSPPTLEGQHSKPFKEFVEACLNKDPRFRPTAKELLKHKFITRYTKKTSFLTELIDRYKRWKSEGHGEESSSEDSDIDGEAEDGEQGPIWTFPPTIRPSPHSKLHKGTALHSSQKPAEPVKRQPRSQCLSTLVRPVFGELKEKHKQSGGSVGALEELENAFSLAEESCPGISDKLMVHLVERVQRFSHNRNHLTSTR

`CNC(=O)c1ccc2c(c1)ncn2-c1ccc(CC(=O)OC(C)(C)C)cc1` was tested. Which residual activity [1] did it give?
The residual activity was 104%.

What about the residual activity [2] of the same compound?
Its residual activity is 96.6%.

And the residual activity [3]?
The residual activity was 104%.

What about the residual activity [4] of the same compound?
Its residual activity is 93.7%.

What about the residual activity [5] of the same compound?
The residual activity was 99.6%.

Which results are given for `Cc1cc(-c2cnc(N)c3c(-c4ccc5scnc5c4)csc23)n(C)n1`?
residual activity [1]: 106%; residual activity [2]: 98.2%; residual activity [3]: 36.8%; residual activity [4]: 79.2%; residual activity [5]: 98.2%

`CC(C)S(=O)(=O)c1ccc2nccc(Nc3ccc4scnc4c3)c2c1` was tested. Which residual activity [1] did it give?
Its residual activity is 98.8%.

What about the residual activity [2] of the same compound?
Its residual activity is 101%.

And the residual activity [3]?
The residual activity was 79%.

What about the residual activity [4] of the same compound?
The residual activity was 98.5%.

And the residual activity [5]?
The residual activity was 102%.

— ChEMBL document CHEMBL5649166, “RIP3 induces apoptosis independent of pronecrotic kinase activity” (Mol Cell, 2014)
